These results are taken from publication PMC12703502, “Characterization of Novel Angiotensin-Converting Enzyme Inhibitory Peptides” (ACS Medicinal Chemistry Letters, 2025).

The target in experiment [1] is Angiotensin-converting enzyme (ACE) (Homo sapiens, UniProt P12821). In words: ACE inhibition, Cushman & Cheung method with slight modifications (HHL substrate). It is filed as biochemical. The source says: Characterization of Novel Angiotensin-Converting Enzyme Inhibitory Peptides Camila Innocente-Alves1,2, Sara Luísa Sulzbach1, Emerson Gonçalves Moreira3, Raul Izidoro Carneiro3, Lucélia Santi1,2,3, Hugo Verli2,3, Walter Orlando Beys-da-Silva1,2,3* 1 Faculdade de Farmácia, Universidade Federal do Rio Grande do Sul, Porto Alegre, Brasil 2 Programa de Pós-Graduação em Biologia Celular e Molecular, Universidade Federal do Rio Grande do Sul, Porto Alegre, Brasil
3 Centro de Biotecnologia (CBiot), Universidade Federal do Rio Grande do Sul, Porto Alegre,
* corresponding author: walter.beys@ufrgs.br
Selection of the bioactive peptides
The peptides were selected from a previous virtual screening performed against our chemical library (PepDB), and evaluated in vitro for its antihypertensive potential. The structures of the peptides, […] […]
PyRosetta. […] The molecular docking result was evaluated usin g the Protein-Ligand Interaction Profile (PLIP) tool ( https://plip-tool.biotec.tu-dresden.de/) for characterization of the interactions and PyMOL ( https://www.pymol.org/) visualization. […]
The peptides were synthesized by AminoTech ( São Paulo, Brazil). […] The ability of the peptides to inhibit ACE activity was evaluated by the Cushman & Cheung method with slight modifications. Absorbances were read at 228 nm (Spectramax M2, Molecular Devices) and ACE inhibition was expressed as percentage of inhibition. […]

In the next experiment the test system is ACE. The note with it: peony seed peptides, VLSGF vs HWS; cited from earlier work.
Experiment [2] concerns ACE C-domain and N-domain. Also on record: method as in 2 sources, one per row (each row's own in cited_ref): ref 22 (probable, citation mark not shown) ||| ref 20 (probable, citation mark not shown). As to conditions: C-domain vs N-domain; ref 22 (probable, citation mark not shown); cited from earlier work. The source says: Both drugs are tripeptides-analogues and present a proline-like C-terminal extremity to interact with the S2′ pocket of ACE, which is composed of Gln281, Tyr520, Lys511, His513, and His353. […] Captopril presents a smaller structure with a sulfhydryl group at the N-terminal to interact with the zinc ion.

Where two headings read alike, the source gives them in different places. Where no end group is shown, it is not given here.

Sequence of Angiotensin-converting enzyme (ACE) (P12821 30-1306, species assumed): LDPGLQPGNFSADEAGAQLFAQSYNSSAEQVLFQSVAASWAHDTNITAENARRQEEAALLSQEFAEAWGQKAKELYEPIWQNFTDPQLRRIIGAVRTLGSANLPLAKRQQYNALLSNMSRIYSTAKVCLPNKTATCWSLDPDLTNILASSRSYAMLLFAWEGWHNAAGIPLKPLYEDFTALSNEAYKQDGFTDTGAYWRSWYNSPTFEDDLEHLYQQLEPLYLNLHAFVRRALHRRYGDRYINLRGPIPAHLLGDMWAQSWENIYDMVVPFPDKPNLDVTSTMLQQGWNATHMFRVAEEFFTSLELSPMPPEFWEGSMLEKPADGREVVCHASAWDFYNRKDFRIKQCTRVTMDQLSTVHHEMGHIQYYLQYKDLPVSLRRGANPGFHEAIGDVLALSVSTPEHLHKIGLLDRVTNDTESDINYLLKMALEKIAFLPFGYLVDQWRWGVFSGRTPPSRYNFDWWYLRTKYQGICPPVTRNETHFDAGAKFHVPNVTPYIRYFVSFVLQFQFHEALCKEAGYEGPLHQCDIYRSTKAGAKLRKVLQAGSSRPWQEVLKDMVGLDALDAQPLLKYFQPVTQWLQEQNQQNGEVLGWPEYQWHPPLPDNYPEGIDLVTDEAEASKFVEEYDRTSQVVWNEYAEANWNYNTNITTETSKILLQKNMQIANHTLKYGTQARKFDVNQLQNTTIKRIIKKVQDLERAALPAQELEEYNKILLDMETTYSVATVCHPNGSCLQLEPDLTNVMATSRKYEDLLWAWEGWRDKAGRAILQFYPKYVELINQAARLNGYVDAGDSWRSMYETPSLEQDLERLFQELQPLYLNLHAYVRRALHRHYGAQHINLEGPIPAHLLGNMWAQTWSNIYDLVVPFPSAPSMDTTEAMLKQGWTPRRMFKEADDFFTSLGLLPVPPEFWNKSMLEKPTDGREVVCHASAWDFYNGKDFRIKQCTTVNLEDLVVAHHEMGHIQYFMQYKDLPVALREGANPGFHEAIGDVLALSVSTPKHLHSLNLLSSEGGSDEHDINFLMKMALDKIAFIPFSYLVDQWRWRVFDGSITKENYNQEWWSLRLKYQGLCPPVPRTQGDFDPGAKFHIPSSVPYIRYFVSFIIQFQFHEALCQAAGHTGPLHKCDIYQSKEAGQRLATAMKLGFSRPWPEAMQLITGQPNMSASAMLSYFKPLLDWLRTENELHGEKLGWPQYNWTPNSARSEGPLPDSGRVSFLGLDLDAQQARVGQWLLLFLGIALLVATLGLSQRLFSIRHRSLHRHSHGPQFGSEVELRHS

Consider MSFLEHFLELK [PepDB_AHP1], for which, in experiment [1] (Cushman & Cheung method, HHL substrate, absorbance 228 nm, at least triplicates, nonlinear regression GraphPad Prism 8.0.1, read-out: IC50), the half-inhibitory concentration (IC50) worked out at 331 µM.
On to VLSGF, for which the “relative IC50” value in the experiment with ACE is recorded as “lower IC50”.
As to VWTNCYHLYPAH [PepDB_AHP4], in experiment [1], the IC50 came out at 88.6 µM.
With `NCCCC[C@H](N[C@@H](CCc1ccccc1)C(=O)O)C(=O)N1CCC[C@H]1C(=O)O` [Lisinopril], the “affinity to ACE domains” value in experiment [2] was “higher affinity to the C-domain”.

What is called IC50 is the concentration that inhibits the measured activity by half.
